Results as given in PubChem BioAssay AID2060892 (Molecular Pharmacology Branch, DTP, NCI, 2025).

Tested on: HOP-62 complex spheroids with HUVEC/MSC, viability
Test: Anticancer human tumor HOP-62 cell line growth inhibition [RAS];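 note: spheroids exposed to agents for seven days before readout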;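 for viability, T/C: 100% = DMSO vehicle control viability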
Settings: for IC50: curve of first compound; for viability, T/C: stronger effect = lower value
Summary of the method: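 Multi-cell-type spheroids: tumor cells plus HUVEC endothelial cells and mesenchymal stem cells. RAS-pathway inhibitors were combined with targeted agents, each dosed in half-log steps down from clinical Cmax, or from 10 microM when Cmax was unknown.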

[1] = second compound 0.000949 µM, first compound 0.0316 µM
[2] = second compound 0.000949 µM, first compound 0.1 µM
[3] = second compound 0.000949 µM, first compound 0.316 µM
[4] = second compound 0.000949 µM, first compound 1 µM
[5] = second compound 0.003 µM, first compound 0.0316 µM
[6] = second compound 0.003 µM, first compound 0.1 µM
[7] = second compound 0.003 µM, first compound 0.316 µM
[8] = second compound 0.003 µM, first compound 1 µM
[9] = second compound 0.00949 µM, first compound 0.0316 µM
[10] = second compound 0.00949 µM, first compound 0.1 µM
[11] = second compound 0.00949 µM, first compound 0.316 µM
[12] = second compound 0.00949 µM, first compound 1 µM
[13] = second compound 0.03 µM, first compound 0.0316 µM
[14] = second compound 0.03 µM, first compound 0.1 µM
[15] = second compound 0.03 µM, first compound 0.316 µM
[16] = second compound 0.03 µM, first compound 1 µM
[17] = second compound 0.0949 µM, first compound 0.0316 µM
[18] = second compound 0.0949 µM, first compound 0.1 µM
[19] = second compound 0.0949 µM, first compound 0.316 µM
[20] = second compound 0.0949 µM, first compound 1 µM
[21] = second compound 0.3 µM, first compound 0.0316 µM
[22] = second compound 0.3 µM, first compound 0.1 µM
[23] = second compound 0.3 µM, first compound 0.316 µM
[24] = second compound 0.3 µM, first compound 1 µM

**Q.** `C[C@@H](NC(=O)c1ncnc(N)c1Cl)c1ncc(C(=O)Nc2cc(C(F)(F)F)c(Cl)cn2)s1` + CCn1c(-c2cccnc2C(C)OC)c2c3cc(ccc31)N1CCOC(CC(NC(=O)C(C(C)C)N(C)C(=O)C3(F)CCN(C(=O)C#CC(C)(C)N(C)C)CC3)C(=O)N3CCCC(N3)C(=O)OCC(C)(C)C2)C1 was tested. Which IC50 (second compound 0.000949 µM) did it give?
**A.** > 10000 nM

**Q.** And the IC50 (second compound 0.003 µM)?
**A.** > 10000 nM

**Q.** What about the IC50 (second compound 0.00949 µM) of the same compound?
**A.** > 10000 nM

**Q.** What about the IC50 (second compound 0.03 µM) of the same compound?
**A.** > 10000 nM

**Q.** What about the IC50 (second compound 0.0949 µM) of the same compound?
**A.** > 10000 nM

**Q.** And the IC50 (second compound 0.3 µM)?
**A.** > 10000 nM

**Q.** What about the viability, T/C [1] of the same compound?
**A.** 113%

**Q.** And the viability, T/C [2]?
**A.** 93%

**Q.** What about the viability, T/C [3] of the same compound?
**A.** 86.2%

**Q.** And the viability, T/C [4]?
**A.** 109%

**Q.** What about the viability, T/C (second compound 0.000949 µM, first compound 3.16 µM) of the same compound?
**A.** 108%

**Q.** And the viability, T/C (second compound 0.000949 µM, first compound 10 µM)?
**A.** 65.3%

**Q.** What about the viability, T/C [5] of the same compound?
**A.** 115%

**Q.** And the viability, T/C [6]?
**A.** 103%

**Q.** And the viability, T/C [7]?
**A.** 87.9%

**Q.** What about the viability, T/C [8] of the same compound?
**A.** 108%

**Q.** What about the viability, T/C (second compound 0.003 µM, first compound 3.16 µM) of the same compound?
**A.** 87%

**Q.** What about the viability, T/C (second compound 0.003 µM, first compound 10 µM) of the same compound?
**A.** 67.7%

**Q.** And the viability, T/C [9]?
**A.** 95%

**Q.** What about the viability, T/C [10] of the same compound?
**A.** 94.8%

**Q.** And the viability, T/C [11]?
**A.** 85.3%

**Q.** And the viability, T/C [12]?
**A.** 96.2%

**Q.** What about the viability, T/C (second compound 0.00949 µM, first compound 3.16 µM) of the same compound?
**A.** 77.7%

**Q.** What about the viability, T/C (second compound 0.00949 µM, first compound 10 µM) of the same compound?
**A.** 70.6%

**Q.** And the viability, T/C [13]?
**A.** 96.8%

**Q.** What about the viability, T/C [14] of the same compound?
**A.** 89.6%

**Q.** What about the viability, T/C [15] of the same compound?
**A.** 95.8%

**Q.** And the viability, T/C [16]?
**A.** 82.4%

**Q.** What about the viability, T/C (second compound 0.03 µM, first compound 3.16 µM) of the same compound?
**A.** 64.5%

**Q.** What about the viability, T/C (second compound 0.03 µM, first compound 10 µM) of the same compound?
**A.** 76%

**Q.** What about the viability, T/C [17] of the same compound?
**A.** 94.7%

**Q.** What about the viability, T/C [18] of the same compound?
**A.** 90.8%

**Q.** And the viability, T/C [19]?
**A.** 81.7%

**Q.** And the viability, T/C [20]?
**A.** 80.3%

**Q.** What about the viability, T/C (second compound 0.0949 µM, first compound 3.16 µM) of the same compound?
**A.** 68.1%

**Q.** What about the viability, T/C (second compound 0.0949 µM, first compound 10 µM) of the same compound?
**A.** 75.7%

**Q.** What about the viability, T/C [21] of the same compound?
**A.** 86.3%

**Q.** What about the viability, T/C [22] of the same compound?
**A.** 83.9%

**Q.** And the viability, T/C [23]?
**A.** 77.5%

**Q.** And the viability, T/C [24]?
**A.** 74.4%

**Q.** What about the viability, T/C (second compound 0.3 µM, first compound 3.16 µM) of the same compound?
**A.** 68.9%

**Q.** What about the viability, T/C (second compound 0.3 µM, first compound 10 µM) of the same compound?
**A.** 71.2%

**Q.** How did the IC50 (second compound 0.000949 µM) turn out when `C=CC(=O)Nc1cc(Nc2nccc(-c3cn(C)c4ccccc34)n2)c(OC)cc1N(C)CCN(C)C` + CCn1c(-c2cc(N3CCN(C)CC3)cnc2C(C)OC)c2c3cc(ccc31)-c1csc(n1)CC(NC(=O)C1CC1C)C(=O)N1CCCC(N1)C(=O)OCC(C)(C)C2 was run?
**A.** > 1000 nM

**Q.** What about the IC50 (second compound 0.003 µM) of the same compound?
**A.** 688 nM

**Q.** And the IC50 (second compound 0.00949 µM)?
**A.** 278 nM

**Q.** What about the IC50 (second compound 0.03 µM) of the same compound?
**A.** 6.38 nM

**Q.** And the IC50 (second compound 0.0949 µM)?
**A.** < 3.16 nM

**Q.** What about the IC50 (second compound 0.3 µM) of the same compound?
**A.** < 3.16 nM

**Q.** And the viability, T/C (second compound 0.000949 µM, first compound 0.00316 µM)?
**A.** 119%

**Q.** And the viability, T/C (second compound 0.000949 µM, first compound 0.01 µM)?
**A.** 114%

**Q.** What about the viability, T/C [1] of the same compound?
**A.** 85.8%

**Q.** What about the viability, T/C [2] of the same compound?
**A.** 120%

**Q.** What about the viability, T/C [3] of the same compound?
**A.** 106%

**Q.** What about the viability, T/C [4] of the same compound?
**A.** 66.4%

**Q.** What about the viability, T/C (second compound 0.003 µM, first compound 0.00316 µM) of the same compound?
**A.** 97.4%

**Q.** What about the viability, T/C (second compound 0.003 µM, first compound 0.01 µM) of the same compound?
**A.** 88.6%

**Q.** And the viability, T/C [5]?
**A.** 74.4%

**Q.** And the viability, T/C [6]?
**A.** 89.5%

**Q.** What about the viability, T/C [7] of the same compound?
**A.** 75.9%

**Q.** What about the viability, T/C [8] of the same compound?
**A.** 37.4%

**Q.** What about the viability, T/C (second compound 0.00949 µM, first compound 0.00316 µM) of the same compound?
**A.** 76.6%

**Q.** And the viability, T/C (second compound 0.00949 µM, first compound 0.01 µM)?
**A.** 62.5%

**Q.** And the viability, T/C [9]?
**A.** 59.7%

**Q.** And the viability, T/C [10]?
**A.** 66.5%

**Q.** And the viability, T/C [11]?
**A.** 47.3%

**Q.** What about the viability, T/C [12] of the same compound?
**A.** 33.2%

**Q.** And the viability, T/C (second compound 0.03 µM, first compound 0.00316 µM)?
**A.** 52%

**Q.** What about the viability, T/C (second compound 0.03 µM, first compound 0.01 µM) of the same compound?
**A.** 49.2%

**Q.** And the viability, T/C [13]?
**A.** 42.7%

**Q.** What about the viability, T/C [14] of the same compound?
**A.** 43.3%

**Q.** What about the viability, T/C [15] of the same compound?
**A.** 26.6%

**Q.** And the viability, T/C [16]?
**A.** 30.1%

**Q.** What about the viability, T/C (second compound 0.0949 µM, first compound 0.00316 µM) of the same compound?
**A.** 40.2%

**Q.** What about the viability, T/C (second compound 0.0949 µM, first compound 0.01 µM) of the same compound?
**A.** 44.1%

**Q.** What about the viability, T/C [17] of the same compound?
**A.** 33.8%

**Q.** And the viability, T/C [18]?
**A.** 32.1%

**Q.** What about the viability, T/C [19] of the same compound?
**A.** 26.4%

**Q.** What about the viability, T/C [20] of the same compound?
**A.** 24%

**Q.** And the viability, T/C (second compound 0.3 µM, first compound 0.00316 µM)?
**A.** 42.1%

**Q.** What about the viability, T/C (second compound 0.3 µM, first compound 0.01 µM) of the same compound?
**A.** 35.6%

**Q.** And the viability, T/C [21]?
**A.** 37.4%

**Q.** And the viability, T/C [22]?
**A.** 33.7%

**Q.** And the viability, T/C [23]?
**A.** 22.9%

**Q.** And the viability, T/C [24]?
**A.** 22.7%
